# Where a SMILES comes first, the peptide text is derived from it. [ ]: non-standard residue; d: D form. pGlu = O=C1CC[C@@H](C(=O)O)N1
# Columns and labels:
# Type in all cases: in vivo
# [1] = system: common carp (Cyprinus carpio L.); experiment: Induced artificial propagation of common carp; details: single dose of 70 μg if ripe for ovulation, or last of the 5 μg doses
# Description: In any season of the year and at any temperature mature breeders are selected from the stock and transported to the place of propagation. Sexes are segregated and the stage of ripening of sexual products is determined according to Example 1. If fish are ripe for ovulation, a single dose of 70 μg of decapeptide of formula (III) is administered, including males. Fish not yet ripe for making ovulate should be kept at the temperature of natural spawning and the above-mentioned compound should be administered in doses of 5 μg each, at least 2 but at most 15 times as long as the nucleus of the egg cell moves from the centre to the periphery. The number of treatments depends on the actual stage of maturity of sexual products in comparison to the stage "ripe for ovulation". The process of ripening lasts at least 100 but most 750 day-grades in the temperature interval of 20°-24° C. Ovulation takes place 240-260 hour-grades after the administration of the last dose. Then sexual products are stripped in 40-60 minutes. cl EXAMPLE 3
# [2] = system: silver carp (Hypophthalmichthys molitrix Val.); experiment: Induced artificial propagation of silver carp; details: single dose of 100 μg if ripe for ovulation, or last of the 10 μg doses
# Description: Sexually mature fish are selected from the stock and transported to the place of propagation. Sexes are segregated. Stage of ripening of sexual products is determined according to Example 1 and fish ripe for ovulation--including males--are treated with a single dose of 100 μg of decapeptide of formula (III). Fish not yet ripe for ovulation should be kept at the temperature of natural spawning and the above-mentioned compound should be administered in doses of 10 μg each, at least 2 but at most 10 times as long as the nucleus of egg cell moves from the centre to the periphery. The number of treatments depends on the actual stage of maturity of sexual products in comparison to the stage "ripe for ovulation". This process of ripening lasts at least 150, in extreme cases to 850, day-grades in the water temperature interval of 20°-26° C. Ovulation takes place 240-260 hour-grades after the administration of the last dose. Thereafter sexual products are stripped.
# [3] = system: sterlet (Acipenser ruthenus L.); experiment: Induced artificial propagation of sterlet; details: single dose of 70 μg if ripe for ovulation, or last of the 10 μg doses, injected
# Description: From the population of a given habitat mature fish are selected and then transported to the place of propagation. Sexes are segregated and the stage of ripening of eggs from females is determined. Fish are considered to be ripe for ovulation if the nucleus is situated on the periphery of the egg cell. Sperms of males are not examined as in the population of a given habitat the sexual products of males and females are practically in the same stage of ripening. If fish are ripe for ovulation, decapeptide of formula (II) in a single dose of 70 μg each is injected into each fish, including males. If fish are not ripe for ovulation, they should be kept at the temperature of natural spawning and the above compound should be administered in doses of 10 μg each, at least 2 but at most 12 times as long as the nucleus moves from the centre to the periphery. The number of treatments depends on the actual stage of maturity of sexual products in comparison to the stage "ripe for ovulation". This process of ripening lasts at least 100 but at most 630 day-grades in the temperature interval of 12°-18° C. (Day-grade means number of days multiplied by the mean temperature of water used in the ripening period.) Ovulation takes place 24-32 hours after the administration of the last dose. Thereafter sexual products are obtained in 40-60 minutes.
# [4] = system: perch [Perca fluviatilis L.]; experiment: Induced artificial propagation of perch; details: single dose of 20 μg if ripe for ovulation, or last of the 2 μg doses
# Description: Mature fish are selected from a population and transported to the place of propagation. Maturity of sexual products is determined according to Example 1 but sexes are not segregated. Fish ripe for ovulation--includingmales--are treated with a single dose of 20 μg of decapeptide of formula (II). Fish not yet ripe for ovulation should be kept at the temperature of natural spawning and the above-mentioned compound should be administered in doses of 2 μg each at least 2 but at most 10 times as long as the nucleus of egg cell moves from the centre to the periphery. The number of treatments depends on the actual stage of maturity of sexual products in comparison to the stage "ripe for ovulation". The process of ripening lasts at least 100 day-grades, in extreme cases to 400 day-grades, in the water temperature-interval of 12°-16° C. Spawning takes place 24-36 hours after the administration of the last dose. Perch can be spawned easily in tanks; in such a case stripping of sexual products is not necessary.
# [5] = system: horse mackerel (Trachurus trachurus L.); experiment: Induced artificial propagation of horse mackerel; details: single dose of 10 μg injected, water temperature 18°-24° C.
# Description: From among horse mackerels caught alive from the Adriatic in November specimens having a length of at least 240 mm are transported to the place of propagation. (Fish of this size are already mature sexually.) The compound of formula (II) is injected into each fish in a single dose of 10 μg. Ovulation takes place in 24 hours at the water temperature of 18°-24° C. Sexual products are obtained in 2 hours. In case of horse mackerel the determination of stage of ripening and sex is unnecessary as ripe fish are at disposal in a practically unlimited quantity.
Structure (SMILES),Ovulation takes place after the administration of the last dose [1],Ovulation takes place after the administration of the last dose [2],Ovulation takes place after the administration of the last dose [3] [h],Spawning takes place after the administration of the last dose [4] [h],Ovulation takes place in [5] [h]
"CC(C)C[C@H](NC(=O)[C@H](Cc1c[nH]c2ccccc12)NC(=O)[C@@H](Cc1ccccc1)NC(=O)[C@H](Cc1ccc(O)cc1)NC(=O)[C@H](CO)NC(=O)[C@H](Cc1c[nH]c2ccccc12)NC(=O)[C@H](Cc1c[nH]cn1)NC(=O)[C@@H]1CCC(=O)N1)C(=O)N1CCC[C@H]1C(=O)NCC(N)=O [formula (III), Glp-His-Trp-Ser-Tyr-D-Phe-Trp-Leu-Pro-Gly-NH2] ([pGlu]HWSY[dF]WLPG-NH2)",240-260 hour-grades,240-260 hour-grades,,,
"CC(C)C[C@H](NC(=O)[C@@H](Cc1ccccc1)NC(=O)[C@H](Cc1ccc(O)cc1)NC(=O)[C@H](CO)NC(=O)[C@H](Cc1c[nH]c2ccccc12)NC(=O)[C@H](Cc1c[nH]cn1)NC(=O)[C@@H]1CCC(=O)N1)C(=O)N[C@@H](CCC(N)=O)C(=O)N1CCC[C@H]1C(=O)NCC(N)=O [formula (II), Glp-His-Trp-Ser-Tyr-D-Phe-Leu-Gln-Pro-Gly-NH2] ([pGlu]HWSY[dF]LQPG-NH2)",,,24 to 32,24 to 36,24

# Source: US4647552A, “Process for obtaining ready for fertilization sexual products from sexually mature fish” (Kozponti Valto-es Hitelbank Rt. Innovacios Alap, priority 1983, dated 1987)
